Assays:
Assay in all cases: Ames mutagenicity test (back mutation)
Format in all cases: cell-based
Set-up in all cases: key: -: no back mutation; (+): slight back mutuation; +: increasing back mutation; ++: increasing back mutation
[1] = system: Salmonella thyphimurium strain TA 97
From the text: (§1) Salmonella thyphimurium strains
(§2) without (-) and with (+) S9 - Mix

[2] = system: Salmonella thyphimurium strain TA 98
From the text: as §1, §2

[3] = system: Salmonella thyphimurium strain TA 100
From the text: as §1, §2

2,4-diaminotrifluoroethoxybenzene was tested, and the “Ames test result, TA 97” value ([1]; with (+) S9-Mix) was “-”, the “Ames test result, TA 97” value ([1]; without (-) S9-Mix) was “-” and the “Ames test result, TA 98” value ([2]; with (+) S9-Mix) was “++”. The “Ames test result, TA 98” value ([2]; without (-) S9-Mix) was “-”, the “Ames test result, TA 100” value ([3]; with (+) S9-Mix) was “(+)” and the “Ames test result, TA 100” value ([3]; without (-) S9-Mix) was “-”.
For `Cc1cc(OC(F)(F)C(F)F)c(N)cc1N` [2,4-diamino-5-tetrafluoroethoxy-toluene, 2,4-diamino-5-tetrafluoroethoxytoluene], the “Ames test result, TA 97” value ([1]; with (+) S9-Mix) was “-”, the “Ames test result, TA 97” value ([1]; without (-) S9-Mix) was “-” and the “Ames test result, TA 98” value ([2]; with (+) S9-Mix) was “-”. For the same molecule, the “Ames test result, TA 98” value ([2]; without (-) S9-Mix) was “-”, the “Ames test result, TA 100” value ([3]; with (+) S9-Mix) was “-” and the “Ames test result, TA 100” value ([3]; without (-) S9-Mix) was “-”.
With `COc1ccc(N)cc1N` [2,4-diaminoanisol] the “Ames test result, TA 97” value ([1]; with (+) S9-Mix) was “+”, the “Ames test result, TA 97” value ([1]; without (-) S9-Mix) was “-” and the “Ames test result, TA 98” value ([2]; with (+) S9-Mix) was “++”. The “Ames test result, TA 98” value ([2]; without (-) S9-Mix) was “-”, the “Ames test result, TA 100” value ([3]; with (+) S9-Mix) was “(+)” and the “Ames test result, TA 100” value ([3]; without (-) S9-Mix) was “-”.
In the case of `CCOc1ccc(N)cc1N` [2,4-diaminophenetol], the “Ames test result, TA 97” value ([1]; with (+) S9-Mix) is reported as “+”, the “Ames test result, TA 97” value ([1]; without (-) S9-Mix) is reported as “-” and the “Ames test result, TA 98” value ([2]; with (+) S9-Mix) is reported as “++”. The “Ames test result, TA 98” value ([2]; without (-) S9-Mix) was “-”, the “Ames test result, TA 100” value ([3]; with (+) S9-Mix) was “-” and the “Ames test result, TA 100” value ([3]; without (-) S9-Mix) was “-”.
In the case of `Nc1ccc(OC(F)(F)C(F)F)c(N)c1` [2,4-diaminotetrafluoroethoxybenzene], the “Ames test result, TA 97” value ([1]; with (+) S9-Mix) is reported as “(+)”, the “Ames test result, TA 97” value ([1]; without (-) S9-Mix) is reported as “-” and the “Ames test result, TA 98” value ([2]; with (+) S9-Mix) is reported as “+”. For the same molecule, the “Ames test result, TA 98” value ([2]; without (-) S9-Mix) was “-”, the “Ames test result, TA 100” value ([3]; with (+) S9-Mix) was “-” and the “Ames test result, TA 100” value ([3]; without (-) S9-Mix) was “-”.

— patent publication US4845294A, “Diaminotetrafluoroethoxybenzenes” (Wella Aktiengesellschaft, priority 1984, dated 1989)
